Laboratory results reported in patent publication US7163935B2, “Scorpionate-like pendant macrocyclic ligands, complexes and compositions thereof, and methods of using same” (The United States of America as represented by the …, priority 2002, dated 2007).

Assay: Complexation (formation) kinetics with Y(III), competing reaction with Arsenazo III, absorbance at 652 nm
Assay type: physicochemical
Conditions: pH 4, room temperature
Experimental: Formation kinetics of Y(III) complexes of 1, 2, and DOTA (Macrocyclics) was measured by monitoring the absorption at 652 nm. To 2 mL of 1.6 mM YCl3 (from atomic absorption standard solution, Aldrich) and 5 mM Arsenazo III (Sigma) in 0.15 M NH4OAc (pH 4.0, metal-free), 20 μL of 10 mM ligand solution were added into a cell. After mixing (<5 sec), absorption of the solution at 652 nm (absorption wavelength of Y(III)-Arsenazo III) (Kline et al., Bioconjugate Chem., 1991, 2,26–31) was immediately followed over time at room temperature using an HP 8452A Diode Array Spectrophotometer, which was pre-blanked with a 5 mM Arsernazo III solution. Without any ligand added, the absorption was 0.089 for 1.6 mM YCl3 in 5 mM Arsernazo III solution at 652 nm.
The complexation kinetics of novel chelates 1, 2, and DOTA with Y(III) was qualitatively investigated using a competing reaction with Arsenazo III according to a modification of a previously reported procedure (Kodama et al., Inorg. Chem., 1991, 30, 1270–1273). The absorbance (A652) for the Y(III)-Arsenazo III complex was measured in the absence and in the presence of the chelates (1, 2, and DOTA) over 1 h. The results are shown in FIG. 3, which is a line graph of absorbance at 652 nm vs. reaction time (s), in which curve “a” represents Y-2, curve “b” represents Y-DOTA, and curve “c” represents Y-1. […] Complexation of Y(III) by 2 is assumed to occur to some degree, but the formed complex might undergo decomplexation due to an absence of complex stability, ultimately leading to an unfavorable equilibrium situation.

[1] = Arsenazo III competition, A652 over 1 h

| SMILES | complex formation with Y(III) (rate) [1] | rate of complex formation with Y(III) compared to DOTA (time scan measurements) | degree of complexation of Y(III) [1] |
| --- | --- | --- | --- |
| O=C(O)CN1CCN(CC(=O)O)CCN(CC(=O)O)CCN(CC(=O)O)CC1 [DOTA, 1,4,7,10-tetraazacyclododecane-N,N′,N″,N′″-tetraacetic acid, reference compound] | sluggish | – | – |
| Cl.Cl.Cl.Cl.O=C(O)CN1CCN(CCN(CC(=O)O)CC(=O)O)CCN(CC(=O)O)CC1 [ligand 1, {[2-(4,7-bis-carboxymethyl)-[1,4,7]triazacyclononan-1-yl-ethyl]-carbonylmethyl-amino]-acetic acid tetrahydrochloride] | quite rapid and is essentially complete very shortly after the starting point of measurement | much greater rate than DOTA | – |
| Cl.Cl.Cl.Cl.O=C(O)CN1CCN(CCCN(CC(=O)O)CC(=O)O)CCN(CC(=O)O)CC1 [ligand 2, {[3-(4,7-bis-carboxymethyl)-[1,4,7]triazacyclononan-1-yl-propyl]-carbonyl-methylamino]-acetic acid tetrahydrochloride] | very slow | – | slight and remained unchanged over the period of measurement |
